{
  "source": "patent US20250360114A1",
  "about": "“INTRAVENOUS RIFABUTIN FORMULATION AND METHODS OF MAKING” (BIOVERSYS AG, priority 2024, published 2025)",
  "key": {"[1]": {"assay": "Solubility of rifabutin in alkanes", "assay_type": "physicochemical"}, "[2]": {"assay": "Sub-visible particle test (10 mg/mL in 0.9% saline, particle counter)", "assay_type": "physicochemical", "method": "As these particle forming impurities are not described in the current pharmacopeial analytical methods, a new testing method was developed which is described in the methods below. In brief, rifabutin powder is dissolved in a mixture of dimethyl isosorbide, acetic acid and water. Subsequently, the obtained solution is diluted in 0.9% saline to a final concentration of 10 mg/mL and sub-visible particles are determined. The established limits for this test are: (1) not more than 12.5 particles/mL greater than 10 μm in diameter, and (2) not more than 3 particles/mL greater than 25 μm in diameter. Considering that current concentrations used for the intravenous administration of rifabutin are well below 10 mg/mL, these limits are much more stringent than the current pharmacopeial limits.\nAbout 400 mg of rifabutin is dissolved in 2 mL of a mixture of isosorbide dimethyl ether (DMI) and acetic acid in water (40% DMI, 2.4% acetic acid). The obtained solution is filtered through a 0.2 μm Nylon filter and […] of 0.9% saline solution to a final concentration of 10 mg/mL. Solutions are stirred for 15 min on a roller mixer to allow sub-visible particle formation.\nSub-visible particles are determined using a suitable instrument (e.g. PAMAS SVSS particle counter). Particle numbers in the 10 mg/mL solution should be not more than 12.5 particles/mL greater 10 μm and not more than […] greater 25 μm to pass the test."}, "[3]": {"details": "Method 1, Example 1 (pentane Soxhlet extraction)"}, "[4]": {"details": "Method 2, Example 2 (pentane / silica gel columns, acetone elution)"}, "[5]": {"details": "Method 3, Example 3 (dissolved in n-heptane 50° C., filtered)"}},
  "data": [
    {"compound": "CO[C@H]1/C=C/O[C@@]2(C)Oc3c(C)c(O)c4c(c3C2=O)C2=NC3(CCN(CC(C)C)CC3)NC2=C(NC(=O)/C(C)=C\\C=C\\[C@H](C)[C@H](O)[C@@H](C)[C@@H](O)[C@@H](C)[C@H](OC(C)=O)[C@@H]1C)C4=O", "note": "[Rifabutin]", "values": [
      {"measurement": "Solubility", "setting": "[1]", "result": "low solubility"}
    ]},
    {"compound": "CO[C@H]1/C=C/O[C@@]2(C)Oc3c(C)c(O)c4c(c3C2=O)C2=NC3(CCN(CC(C)C)CC3)NC2=C(NC(=O)/C(C)=C\\C=C\\[C@H](C)[C@H](O)[C@@H](C)[C@@H](O)[C@@H](C)[C@H](OC(C)=O)[C@@H]1C)C4=O", "note": "[original, rifabutin]", "values": [
      {"measurement": "Sub-visible particles ≥10 μm", "setting": "[2]; [3]", "result": 138.3, "unit": "particles/mL"},
      {"measurement": "Sub-visible particles ≥25 μm", "setting": "[2]; [3]", "result": 16.3, "unit": "particles/mL"},
      {"measurement": "Sub-visible particles ≥10 μm", "setting": "[2]; [4]", "result": 1804.0, "unit": "particles/mL"},
      {"measurement": "Sub-visible particles ≥25 μm", "setting": "[2]; [4]", "result": 98.7, "unit": "particles/mL"},
      {"measurement": "Sub-visible particles ≥10 μm", "setting": "[2]; [5]", "result": 1804.0, "unit": "particles/mL"},
      {"measurement": "Sub-visible particles ≥25 μm", "setting": "[2]; [5]", "result": 98.7, "unit": "particles/mL"}
    ]},
    {"compound": "CO[C@H]1/C=C/O[C@@]2(C)Oc3c(C)c(O)c4c(c3C2=O)C2=NC3(CCN(CC(C)C)CC3)NC2=C(NC(=O)/C(C)=C\\C=C\\[C@H](C)[C@H](O)[C@@H](C)[C@@H](O)[C@@H](C)[C@H](OC(C)=O)[C@@H]1C)C4=O", "note": "[purified, rifabutin]", "values": [
      {"measurement": "Sub-visible particles ≥10 μm", "setting": "[2]; [3]", "result": 8.4, "unit": "particles/mL"},
      {"measurement": "Sub-visible particles ≥25 μm", "setting": "[2]; [3]", "result": 0.4, "unit": "particles/mL"},
      {"measurement": "Sub-visible particles ≥10 μm", "setting": "[2]; [4]", "result": 2.6, "unit": "particles/mL"},
      {"measurement": "Sub-visible particles ≥25 μm", "setting": "[2]; [4]", "result": 0.0, "unit": "particles/mL"},
      {"measurement": "Sub-visible particles ≥10 μm", "setting": "[2]; [5]", "result": 7.1, "unit": "particles/mL"},
      {"measurement": "Sub-visible particles ≥25 μm", "setting": "[2]; [5]", "result": 0.2, "unit": "particles/mL"}
    ]}
  ]
}
